Assay results taken from patent publication US6017947A, “Heterocyclic carbodithioperoxyimidic compounds useful for the inhibition of the replication of HIV” (priority 1999, dated 2000).
“And” between values parts separate entries of the source, which are not always exact repeats. Equal entries are not always repeated.

Legend:
HIV-1(IIIB) = experiment: Inhibition of HIV-1 induced syncytium formation in CEM cells, HIV-1(IIIB) (WT); format: cell-based; conditions: day 4 post infection
Text: Cells and Viruses CEM cells were obtained from the […] (Rockville, Md.). HIV-l(IIIB) was originally obtained from the culture supernatant of persistently HIV-1-infected H9 cells and was provided by R. C. Gallo and M. Popovic (National Cancer Institute, National Institutes of Health, Bethesda, Md.).
(§1) CEM cells were suspended at ≈300,000 cells per ml of culture medium and infected with approximately 100 CCID50 (CCID50 being the 50% cell culture infective dose) of HIV-1(IIIB) (designated as "WT" in Table 3) or one of the HIV-1 RT mutant strains described above. Then 100 μl of the infected cell suspensions was added to 200 μl microtiter plate wells containing 100 μl of appropriate serial (5-fold) dilutions of the test compounds. The inhibitiory effect of the test compounds on HIV-1 induced syncytium formation in CEM cells was examined microscopically on day 4 post infection. The 50% effective concentration (EC50) was defined as the test compound concentration that inhibits syncytium formation in the HIV-1-infected cell cultures by 50%.

HIV-1/190-Glu = experiment: Inhibition of HIV-1 induced syncytium formation in CEM cells, RT mutant 190-Glu; format: cell-based; conditions: Human immunodeficiency virus 1, CCRF-CEM, 96 h
Text: (§2) The selection and characterization of the HIV-1 RT mutant strains were done as follows: HIV-1/100-Ile ("100-Ile") was selected for resistance against TIBO R82150 as described in Balzarini et al, Virology 192: 246-253 (1993); HIV-1/103-Asn ("103-Asn") was selected for resistance against TIBO R82913 as described in Balzarini et al, Virology 192: 246-253 (1993); HIV-1/106-Ala ("106-Ala") was selected for resistance against nevirapine as described in Balzarini et al, J. Virol. 67: 5353-5359 (1993); HIV-1/Lys-138 ("ys-138") was selected for resistance against TSAO-m^3 T as described in Balzarini et al, Virology 192: 246-253 (1993) and Balzarini et al, Proc. Nat. Acad. Sci. USA 90: 6952-6956 (1993); HIV-1/181-Cys ("181-Cys") was selected for resistance against pyridinone L-697,661 as described in Balzarini et al, Virology 192: 246-253 (1993); and HIV-1/188-His ("188-His") was selected for resistance against HEPT as described in Balzarini et al, Mol. Pharmocol. 44: 694-701 (1993). 188-His was then further converted to HIV-1/188-Leu("188-Leu") upon further passage in cell culture in the absence of the HEPT. HIV-1/101-Glu ("101-Glu") and HIV-1/190-Glu ("190-Glu") were selected for resistance against the thiocarboxanilide derivative designated as UC38 as described in Balzarini et al, Antiviral Research 27: 219-236 (1995). HIV-1/184-Ile ("184-Ile") was selected for resistance against the combination of 3TC and TSAO-m^3 T as described in Balzarini et al, Molecular Pharm. 49: 882-890 (1996). HIV-1/184-Val ("184-Val") was selected for resistance against 3TC as described in Balzarini et al, Molecular Pharm. 49: 882-890 (1996).
as §1

HIV-1/Lys-138 = experiment: Inhibition of HIV-1 induced syncytium formation in CEM cells, RT mutant 138-Lys; format: cell-based; conditions: Human immunodeficiency virus 1, CCRF-CEM, 96 h
Text: as §2, §1

HIV-1/101-Glu = experiment: Inhibition of HIV-1 induced syncytium formation in CEM cells, RT mutant 101-Glu; format: cell-based; conditions: Human immunodeficiency virus 1, CCRF-CEM, 96 h
Text: as §2, §1

HIV-1/181-Cys = experiment: Inhibition of HIV-1 induced syncytium formation in CEM cells, RT mutant 181-Cys; format: cell-based; conditions: Human immunodeficiency virus 1, CCRF-CEM, 96 h
Text: as §2, §1

HIV-1/103-Asn = experiment: Inhibition of HIV-1 induced syncytium formation in CEM cells, RT mutant 103-Asn; format: cell-based; conditions: Human immunodeficiency virus 1, CCRF-CEM, 96 h
Text: as §2, §1

HIV-1/106-Ala = experiment: Inhibition of HIV-1 induced syncytium formation in CEM cells, RT mutant 106-Ala; format: cell-based; conditions: Human immunodeficiency virus 1, CCRF-CEM, 96 h
Text: as §2, §1

HIV-1/184-Val = experiment: Inhibition of HIV-1 induced syncytium formation in CEM cells, RT mutant 184-Val; format: cell-based; conditions: Human immunodeficiency virus 1, CCRF-CEM, 96 h
Text: as §2, §1

HIV-1/188-His = experiment: Inhibition of HIV-1 induced syncytium formation in CEM cells, RT mutant 188-His; format: cell-based; conditions: Human immunodeficiency virus 1, CCRF-CEM, 96 h
Text: as §2, §1

HIV-1/184-Ile = experiment: Inhibition of HIV-1 induced syncytium formation in CEM cells, RT mutant 184-Ile; format: cell-based; conditions: Human immunodeficiency virus 1, CCRF-CEM, 96 h
Text: as §2, §1

HIV-1/188-Leu = experiment: Inhibition of HIV-1 induced syncytium formation in CEM cells, RT mutant 188-Leu; format: cell-based; conditions: Human immunodeficiency virus 1, CCRF-CEM, 96 h
Text: as §2, §1

HIV-1/100-Ile = experiment: Inhibition of HIV-1 induced syncytium formation in CEM cells, RT mutant 100-Ile; format: cell-based; conditions: Human immunodeficiency virus 1, CCRF-CEM, 96 h
Text: as §2, §1

[1] = system: HIV-1 strains containing the 100 Leu→Ile mutation in their RT; conditions: cited from earlier work
[2] = system: 181 Tyr→Cys mutation in the RT of HIV-1 strains; conditions: cited from earlier work
[3] = Human immunodeficiency virus 1, IIIB, CCRF-CEM, 96 h, Table 2, HIV-1(IIIB), repeat values
[4] = Table 2, HIV-1(IIIB), repeat values
[5] = Human immunodeficiency virus 1, IIIB, CCRF-CEM, 96 h, Table 3, WT (HIV-1(IIIB))

Row | SMILES | EC50 (HIV-1(IIIB); [3]) | EC50 (HIV-1(IIIB); [4]) | EC50 (HIV-1/190-Glu) | EC50 (HIV-1/Lys-138) | EC50 (HIV-1/101-Glu) | EC50 (HIV-1/181-Cys) | EC50 (HIV-1/103-Asn) | EC50 (HIV-1(IIIB); [5]) | EC50 (HIV-1/106-Ala) | EC50 (HIV-1/184-Val) | EC50 (HIV-1/188-His) | EC50 (HIV-1/184-Ile) | EC50 (HIV-1/188-Leu) | EC50 (HIV-1/100-Ile) | resistance of the mutant strain to the compound [1] | resistance of the mutant strain to the compound [2]
1 | CC(C)=CCOc1cc(N=C(SN2CCOCC2)c2ccoc2C)ccc1Cl [Compound 11] | 16.3 nM | 12.4 nM |  |  |  |  |  |  |  |  |  |  |  |  |  | 
2 | CSSC(=Nc1ccc(Cl)c(OCC=C(C)C)c1)c1cc(C)oc1C [Compound 9, N-[4-chloro-3-[(3-methyl-2-butenyl)oxy]phenyl]-2,5-dimethyl-3-furancarbodithioperoxyimidic acid methyl ester] | 65 nM | 66.9 nM | > 2 µg/mL | 0.09 µg/mL | 0.28 µg/mL | 0.7 µg/mL | ≥ 2 µg/mL | 0.0097 µg/mL | 0.2 µg/mL | 9 ng/mL | ≥ 2 µg/mL | 0.05 µg/mL | ≥ 2 µg/mL | ≥ 2 µg/mL |  | 
3 | CSSC(=Nc1ccc(Cl)c(C=NOC(C)(C)C)c1)c1ccoc1C [Compound 3] | 128 nM | 121 nM | > 2 µg/mL | 0.1 µg/mL | 0.14 µg/mL | 0.1 µg/mL | 1.33 µg/mL | 0.018 µg/mL | 0.18 µg/mL | 120 ng/mL | 0.8 µg/mL | 0.03 µg/mL | 1.35 µg/mL | 0.47 µg/mL |  | 
4 | CSSC(=Nc1ccc(Cl)c(COc2ccccc2Cl)c1)c1ccoc1C [Compound 7] | 48.6 nM | 53.3 nM | > 2 µg/mL | 0.13 µg/mL | 0.34 µg/mL | 0.47 µg/mL | ≥ 2 µg/mL | 0.0075 µg/mL | 0.55 µg/mL | 9 ng/mL | 0.65 µg/mL | 0.02 µg/mL | 0.7 µg/mL | 0.93 µg/mL |  | 
5 | CSSC(=Nc1ccc(Cl)c(OCC=C(C)C)c1)c1ccoc1C [Compound 4] |  |  | > 2 µg/mL | 0.008 µg/mL | 0.027 µg/mL | 0.08 µg/mL | 0.15 µg/mL | 0.0018 µg/mL | 0.018 µg/mL | 1.5 ng/mL | 0.85 µg/mL | 0.0032 µg/mL | 0.58 µg/mL | 0.053 µg/mL |  | 
6 | CC(C)=CCN1Cc2cccc3[nH]c(=S)n(c23)C[C@@H]1C [Compound R82150] |  |  |  |  |  |  |  |  |  |  |  |  |  |  | resistant | 
7 | CSSC(=Nc1ccc(Cl)c(OCCC(C)C)c1)c1ccsc1C [Compound 1, N-[4-chloro-3-(3-methylbutoxy)-phenyl]-2-methyl-3-thiophenecarbodithioperoxyimidic acid methyl ester] |  | 104 nM and 186 nM |  |  |  |  |  |  |  |  |  |  |  |  |  | 
8 | CSSC(=Nc1ccc(Cl)c(C=NOC(C)C)c1)c1ccoc1C [Compound 5, N-[4-chloro-3-[[(1-methylethoxy)imino]-methyl]phenyl]-2-methyl-3-furancarbodithioperoxyimidic acid methyl ester] | 73.2 nM | 43.1 nM | > 2 µg/mL | 0.1 µg/mL | 0.13 µg/mL | 0.18 µg/mL | 0.85 µg/mL | 0.0075 µg/mL | 0.1 µg/mL | 7.5 ng/mL | 0.7 µg/mL | 0.013 µg/mL | 0.95 µg/mL | 0.25 µg/mL |  | 
9 | Cc1ccnc2c1NC(=O)c1cccnc1N2C1CC1 [nevirapine] |  |  |  |  |  |  |  |  |  |  |  |  |  |  |  | resistant
10 | Cc1occc1C(=Nc1ccc(Cl)c(C=NOC(C)(C)C)c1)SSc1ccccc1 [Compound 8] | 156 nM | 83.2 nM | > 2 µg/mL | 0.18 µg/mL | 0.2 µg/mL | 0.23 µg/mL | ≥ 2 µg/mL | 0.03 µg/mL | 0.7 µg/mL | 18 ng/mL | ≥ 2 µg/mL | 0.03 µg/mL | > 2 µg/mL | 0.65 µg/mL |  | 
11 | CSSC(=Nc1ccc(Cl)c(OCCC(C)C)c1)c1ccoc1C [Compound 6] | 83.7 nM | 80.4 nM | > 2 µg/mL | 0.15 µg/mL | 0.13 µg/mL | 0.29 µg/mL | 0.65 µg/mL | 0.012 µg/mL | 0.13 µg/mL | 8 ng/mL | ≥ 2 µg/mL | 0.02 µg/mL | > 2 µg/mL | 0.25 µg/mL |  | 
12 | CC(C)=CCN1Cc2cc(Cl)cc3[nH]c(=S)n(c23)C[C@@H]1C [TIBO R82913] |  |  |  |  |  |  |  |  |  |  |  |  |  |  | resistant | 
13 | CC(C)=CCOc1cc(N=C(SSc2ccccc2)c2ccoc2C)ccc1Cl [Compound 10] |  |  | > 2 µg/mL | 0.23 µg/mL | 0.2 µg/mL | ≥ 2 µg/mL | ≥ 2 µg/mL | 0.05 µg/mL | 0.5 µg/mL | 53 ng/mL | ≥ 2 µg/mL | 0.09 µg/mL | > 2 µg/mL | 1.5 µg/mL |  | 
